Literature values as cited in patent US9078864B2, “Agonists for antimicrobial peptide systems” (priority 2008, dated 2015).

Test system: shigellosis
Details: patients with shigellosis; unit not given; cited from earlier work

## CC(C)(C)C(=O)OCOC(=O)[C@@H]1N2C(=O)[C@@H](/N=C/N3CCCCCC3)[C@H]2SC1(C)C [pivmecillinam]
  duration of diarrhoea (mean±SD): 3.2±1.8
